Assay [1] deals with T1, human GLP-1 receptor (Homo sapiens, UniProt P43220).
T1 construct: expressed in transfected cells; host or cells: BHK cells, clone FCW467-12A/KZ10-1 (parent line BHKTS13), further transfected with CRE luciferase
Description: GLP-1 receptor binding (SPA, displacement of 125I-GLP-1). Here is the method: The purpose of this experiment is to investigate the binding to the GLP-1 receptor of the GLP-1 derivatives, and how the binding is potentially influenced by the presence of albumin. This is done in an in vitro experiment as described below.
In order to test the binding of the derivatives to albumin, the assay was performed with a low concentration of albumin (0.001%—corresponding to the residual amount thereof in the tracer), as well as with a high concentration of albumin (2.0% added). A shift in the binding affinity, IC50, is an indication that the peptide in question binds to albumin, and thereby a prediction of a potential protracted pharmacokinetic profile of the peptide in question in animal models.
Species (in vitro): Hamster
Biological End Point: Receptor Binding
A stable transfected cell line and a high expressing clone were selected for screening. The cells were grown at 5% CO2 in DMEM, 10% FCS, 1% Pen/Strep (Penicillin/Streptomycin) and 1.0 mg/ml of the selection marker G418.
The cells (approx. 80% confluence) were washed twice in PBS and harvested with Versene (aqueous solution of the tetrasodium salt of ethylenediaminetetraacetic acid), following which they were separated by centrifugation at 1000 rpm for 5 min. The cells/cell pellet must be kept on ice to the extent possible in the subsequent steps. The cell pellet was homogenised with Ultrathurrax for 20-30 seconds in a suitable amount of Buffer 1 (depending on the amount of cells, but e.g. 10 ml). The homogenate was centrifuged at 20000 rpm for 15 minutes. The pellet was resuspended (homogenised) in 10 ml Buffer 2 and re-centrifuged. This step was repeated once more. The resulting pellet was resuspended in Buffer 2, and the protein concentration was determined. The membranes were stored at minus 80° C.
Buffer 1:20 mM Na-HEPES+10 mM EDTA, pH 7.4
Buffer 2:20 mM Na-HEPES+0.1 mM EDTA, pH 7.4
Test compounds, membranes, SPA-particles and [^125I]-GLP-1(7-36)NH2 were diluted in assay buffer. 50 ul (micro liter) HSA (“high albumin” experiment containing 2% HSA), or buffer (“low albumin” experiment containing 0.001% HSA) was added to Optiplate, and 25 ul of test compounds were added. 5-10 ug membrane protein/sample was added (50 ul) corresponding to 0.1-0.2 mg protein/ml (to be preferably optimised for each membrane preparation). SPA-particles (Wheatgerm agglutinin SPA beads, Perkin Elmer, # RPNQ0001) were added in an amount of 0.5 mg/well (50 ul). The incubation was started with [^125I]-GLP-1]-(7-36)NH2 (final concentration 0.06 nM corresponding to 49.880 DPM, 25 ul). The plates were sealed with PlateSealer and incubated for 120 minutes at 30° C. while shaking. The plates were centrifuged (1500 rpm, 10 min) and counted in Topcounter.
(In general: In a radioligand displacement assay an active substance lowers the binding of a labelled ligand.)

Assay [2] has as its target T1, human GLP-1 receptor. Description: In vitro potency (CRE luciferase; whole cells). The following applies: for EC50: BHK cells. On the set-up: EC50/pM (ratio 1% HSA/0% HSA): unit not given here. Type of assay: cell-based. Here is the method: The purpose of this example is to test the activity, or potency, of the GLP-1 derivatives in vitro. The in vitro potency is the measure of human GLP-1 receptor activation in a whole cell assay.
In vitro potency was determined by measuring the response of human GLP-1 receptor in a reporter gene assay. The assay was performed in a stably transfected BHK cell line that expresses the human GLP-1 receptor and contains the DNA for the cAMP response element (CRE) coupled to a promoter and the gene for firefly luciferase (CRE luciferase). When the human GLP-1 receptor was activated it results in the production of cAMP, which in turn results in the luciferase protein being expressed. When assay incubation was completed the luciferase substrate (luciferin) was added and the enzyme converts luciferin to oxyluciferin and produces bioluminescence. The luminescence was measured and was the readout for the assay.
An increase of the in vitro potency, EC50 value, in the presence of serum albumin indicates an affinity to serum albumin and represents a method to predict a protracted pharmacokinetic profile of the test substance in animal models.
The cells were cultured at 5% CO2 in cell culture medium. They were aliquoted and stored in liquid nitrogen. Before each assay an aliquot was taken up and washed twice in PBS before being suspended at the desired concentration in the assay specific buffer.
The following chemicals were used in the assay: Pluronic F-68 (10%) (Gibco 2404), human serum albumin (HSA) (Sigma A9511), ovalbumin (Sigma A5503), DMEM w/o phenol red (Gibco 11880-028), 1 M Hepes (Gibco 15630), Glutamax 100× (Gibco 35050) and steadylite plus (PerkinElmer 6016757).
1) Cell stocks were thawed in a 37° C. water bath.
2) Cells were washed three times in PBS.
3) The cells were counted and adjusted to 5×10^3 cells/50 μl (1×10^5 cells/ml) in assay medium. A 50 μl aliquot of cells was transferred to each well in the assay plate.
4) Stocks of the test compounds and reference compounds were diluted to a concentration of 0.2 μM in 0% assay buffer for the 0% HSA CRE luciferase assay and 1% assay buffer for the HSA CRE luciferase assay. […] 5) A 50 μl aliquot of compound or blank was transferred in triplicate from the dilution plate to the assay plate. […] 7) The assay plate was removed from the incubator and allowed to stand at room temperature for 15 min. 8) A 100 μl aliquot of steadylite plus reagent was added to each well of the assay plate (reagent was light sensitive). 9) Each assay plate was covered with aluminum foil to protect it from light and shaken for 30 min at room temperature. 10) Each assay plate was read in a Packard TopCount NXT instrument. Calculations and Results
The data from the TopCount instrument were transferred to GraphPad Prism software. The software averages the values for each replicate and performs a non-linear regression.

[3] abbreviates: Receptor binding affinity IC50 (high HSA), 2.0% HSA (high albumin).
[4] abbreviates: Receptor binding affinity IC50 (low HSA), 0.001% HSA (low albumin).
Where [5] appears, read: In vitro potency (CRE luciferase) EC50 (1% HSA), 1% HSA.

The structures appear in SMILES notation.

T1 sequence (P43220 24-463): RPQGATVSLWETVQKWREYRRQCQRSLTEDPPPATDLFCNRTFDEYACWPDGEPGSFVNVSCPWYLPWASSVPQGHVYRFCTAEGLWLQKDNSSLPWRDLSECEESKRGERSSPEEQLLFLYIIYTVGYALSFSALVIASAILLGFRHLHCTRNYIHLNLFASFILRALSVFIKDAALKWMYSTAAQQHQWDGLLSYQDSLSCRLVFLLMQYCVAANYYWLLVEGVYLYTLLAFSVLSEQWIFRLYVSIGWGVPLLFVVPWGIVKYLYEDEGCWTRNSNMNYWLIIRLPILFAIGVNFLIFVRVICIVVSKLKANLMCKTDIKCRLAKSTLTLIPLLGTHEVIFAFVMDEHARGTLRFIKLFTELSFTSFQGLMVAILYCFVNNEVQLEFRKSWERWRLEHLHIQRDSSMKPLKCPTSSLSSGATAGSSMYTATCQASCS

As usually defined, the IC50 is the concentration that inhibits the measured activity by half. Broadly, the EC50 is the concentration needed to bring the measured effect to its halfway point. With `CC[C@H](C)[C@H](NC(=O)[C@H](Cc1ccccc1)NC(=O)[C@H](CCC(=O)O)NC(=O)[C@H](CCCCNC(=O)[C@@H](N)CCCCNC(=O)CC[C@H](NC(=O)CC[C@H](NC(=O)CC[C@H](NC(=O)CCCCCCCCCOc1ccc(C(=O)O)cc1)C(=O)O)C(=O)O)C(=O)O)NC(=O)[C@H](C)NC(=O)[C@H](C)NC(=O)[C@H](CCC(N)=O)NC(=O)CNC(=O)[C@H](CCC(=O)O)NC(=O)[C@H](CC(C)C)NC(=O)[C@H](Cc1ccc(O)cc1)NC(=O)[C@H](CO)NC(=O)[C@H](CO)NC(=O)[C@@H](NC(=O)[C@H](CC(=O)O)NC(=O)[C@H](CO)NC(=O)[C@@H](NC(=O)[C@H](Cc1ccccc1)NC(=O)[C@@H](NC(=O)CNC(=O)[C@H](CCC(=O)O)NC(=O)C(C)(C)NC(=O)[C@@H](N)Cc1c[nH]cn1)[C@@H](C)O)[C@@H](C)O)C(C)C)C(=O)N[C@@H](C)C(=O)N[C@@H](Cc1c[nH]c2ccccc12)C(=O)N[C@@H](CC(C)C)C(=O)N[C@H](C(=O)N[C@@H](CCCNC(=N)N)C(=O)NCC(=O)N[C@@H](CCCNC(=N)N)C(=O)N[C@@H](CCCCNC(=O)[C@@H](N)CCCCNC(=O)CC[C@H](NC(=O)CC[C@H](NC(=O)CC[C@H](NC(=O)CCCCCCCCCOc1ccc(C(=O)O)cc1)C(=O)O)C(=O)O)C(=O)O)C(=O)O)C(C)C` [Example 8, N^ε26-[(2S)-2-amino-6-[[(4S)-4-carboxy-4-[[(4S)-4-carboxy-4-[[(4S)-4-carboxy-4-[10-(4-carboxyphenoxy)decanoylamino]butanoyl]amino]butanoyl]amino]butanoyl]amino]hexanoyl], N^ε37-[(2S)-2-amino-6-[[(4S)-4-carboxy-4-[[(4S)-4-carboxy-4-[[(4S)-4-carboxy-4-[10-(4-carboxyphenoxy)decanoylamino]butanoyl]amino]butanoyl]amino]butanoyl]amino]hexanoyl]-[Aib^8,Arg^34,Lys^37]-GLP-1-(7-37)-peptide], the values for the IC50 on human GLP-1 receptor [1] (setting [3]) and on human GLP-1 receptor [1] (setting [4]) were 269 nM and 0.68 nM, respectively. Moreover, the 50% effective concentration (EC50) on human GLP-1 receptor [2] (In vitro potency (CRE luciferase) EC50 (0% HSA), 0% HSA) stood at 0.0026 nM; at human GLP-1 receptor [2] (setting [5]) it was 0.045 nM.
With `CC[C@H](C)[C@H](NC(=O)[C@H](Cc1ccccc1)NC(=O)[C@H](CCC(=O)O)NC(=O)[C@H](CCCCNC(=O)[C@@H](N)CCCCNC(=O)[C@H](CO)NC(=O)CNC(=O)[C@H](CO)NC(=O)CC[C@H](NC(=O)CCCCCCCCCCCOc1ccc(C(=O)O)cc1)C(=O)O)NC(=O)[C@H](C)NC(=O)[C@H](C)NC(=O)[C@H](CCC(N)=O)NC(=O)CNC(=O)[C@H](CCC(=O)O)NC(=O)[C@H](CC(C)C)NC(=O)[C@H](Cc1ccc(O)cc1)NC(=O)[C@H](CO)NC(=O)[C@H](CO)NC(=O)[C@@H](NC(=O)[C@H](CC(=O)O)NC(=O)[C@H](CO)NC(=O)[C@@H](NC(=O)[C@H](Cc1ccccc1)NC(=O)[C@@H](NC(=O)CNC(=O)[C@H](CCC(=O)O)NC(=O)C(C)(C)NC(=O)CCc1c[nH]cn1)[C@@H](C)O)[C@@H](C)O)C(C)C)C(=O)N[C@@H](C)C(=O)N[C@@H](Cc1c[nH]c2ccccc12)C(=O)N[C@@H](CC(C)C)C(=O)N[C@H](C(=O)N[C@@H](CCCNC(=N)N)C(=O)NCC(=O)N[C@@H](CCCNC(=N)N)C(=O)N[C@@H](CCCCNC(=O)[C@@H](N)CCCCNC(=O)[C@H](CO)NC(=O)CNC(=O)[C@H](CO)NC(=O)CC[C@H](NC(=O)CCCCCCCCCCCOc1ccc(C(=O)O)cc1)C(=O)O)C(=O)O)C(C)C` [Example 25], the IC50 at human GLP-1 receptor [1] (setting [3]) was 274 nM. Moreover, the concentration for a half-maximal effect (EC50) at human GLP-1 receptor [2] (setting [5]) is 0.124 nM.
Consider `CC[C@H](C)[C@H](NC(=O)[C@H](Cc1ccccc1)NC(=O)[C@H](CCC(=O)O)NC(=O)[C@H](CCCCNC(=O)[C@@H](N)CCCCNC(=O)[C@@H](N)CCCCNC(=O)CC[C@H](NC(=O)CCCCCCCCCCOc1ccc(C(=O)O)cc1)C(=O)O)NC(=O)[C@H](C)NC(=O)[C@H](C)NC(=O)[C@H](CCC(N)=O)NC(=O)CNC(=O)[C@H](CCC(=O)O)NC(=O)[C@H](CC(C)C)NC(=O)[C@H](Cc1ccc(O)cc1)NC(=O)[C@H](CO)NC(=O)[C@H](CO)NC(=O)[C@@H](NC(=O)[C@H](CC(=O)O)NC(=O)[C@H](CO)NC(=O)[C@@H](NC(=O)[C@H](Cc1ccccc1)NC(=O)[C@@H](NC(=O)CNC(=O)[C@H](CCC(=O)O)NC(=O)C(C)(C)NC(=O)[C@@H](N)Cc1c[nH]cn1)[C@@H](C)O)[C@@H](C)O)C(C)C)C(=O)N[C@@H](C)C(=O)N[C@@H](Cc1c[nH]cn1)C(=O)N[C@@H](CC(C)C)C(=O)N[C@H](C(=O)N[C@@H](CCC(N)=O)C(=O)NCC(=O)N[C@@H](CCCNC(=N)N)C(=O)N[C@@H](CCCCNC(=O)[C@@H](N)CCCCNC(=O)[C@@H](N)CCCCNC(=O)CC[C@H](NC(=O)CCCCCCCCCCOc1ccc(C(=O)O)cc1)C(=O)O)C(=O)O)C(C)C` [Example 31, N^ε26-[(2S)-2-amino-6-[[(2S)-2-amino-6-[[(4S)-4-carboxy-4-[11-(4-carboxyphenoxy)undecanoylamino]butanoyl]amino]hexanoyl]amino]hexanoyl], N^ε37-[(2S)-2-amino-6-[[(2S)-2-amino-6-[[(4S)-4-carboxy-4-[11-(4-carboxyphenoxy)undecanoylamino]butanoyl]amino]hexanoyl]amino]hexanoyl]-[Aib^8,His^31,Gln^34,Lys^37]-GLP-1-(7-37)-peptide], for which the IC50 on human GLP-1 receptor [1] (setting [3]) is 40 nM; on human GLP-1 receptor [1] (setting [4]), 0.76 nM. Moreover, the 50% effective concentration (EC50) at human GLP-1 receptor [2] (setting [5]) is 0.55 nM. The “EC50/pM (ratio 1% HSA/0% HSA)” value on human GLP-1 receptor [2] (ratio of EC50 at 1% HSA to EC50 at 0% HSA) is given as 82.

The values are drawn from US10604554B2, “Double-acylated GLP-1 derivatives” (Novo Nordisk A/S, priority 2012, dated 2020).
